US5407918A, “16-membered macrolide derivatives and process for producing the same” (Meiji Seika Kaisha, Ltd., priority 1992, dated 1995)
Converted amounts (≈) assume the structure as drawn. Like-named read-outs stand apart in the source and are kept apart here.

What was measured:
B. catarrhalis W-0500 = test: MIC, agar plate dilution method; assay type: cell-based; details: Moraxella catarrhalis, W0500, 37° C., 20 hours, read-out: Antimicrobial activity (MIC)
Procedure: (§1) Antimicrobial activities of the compounds of the present invention were determined by measuring minimum inhibitory concentration (MIC). Minimum inhibitory concentration was determined by the agar plate dilution method in the following manner.
(§2) Test strains were subjected to seed culture using Sensitivity test broth (STB, Nissui Pharmaceutical) except that the strains belonging to the genus Streptococcus, Branhamella and Haemophilus were cultured on blood agar plate. A 5 μl portion of cell suspension of the test strains having about 10^6 CFU/ml was inoculated into Sensitivity disk agar (SDA, Nissui Pharmaceutical) supplemented with 5% horse blood and incubated at 37° C. for 20 hours. Then, MIC was measured. For comparison, MDM and leucomycin A7 (LM-A7) was also tested.

B. catarrhalis W-0506 = test: MIC, agar plate dilution method; assay type: cell-based; details: Moraxella catarrhalis, W0506, 37° C., 20 hours, read-out: Antimicrobial activity (MIC)
Procedure: as §1, §2

E. coli NIHJ JC-2 = test: MIC, agar plate dilution method; assay type: cell-based; details: Escherichia coli, read-out: Antimicrobial activity (MIC)
Procedure: as §1, §2

E. faecalis W-73 = test: MIC, agar plate dilution method; assay type: cell-based; details: Enterococcus faecalis, read-out: Antimicrobial activity (MIC)
Procedure: as §1, §2

H. influenzae 9334 = test: MIC, agar plate dilution method; assay type: cell-based; details: read-out: Antimicrobial activity (MIC)
Procedure: as §1, §2

K. pneumoniae PC1602 = test: MIC, agar plate dilution method; assay type: cell-based; details: Klebsiella pneumoniae, 37° C., 20 hours, read-out: Antimicrobial activity (MIC)
Procedure: as §1, §2

M. luteus ATCC9341 = test: MIC, agar plate dilution method; assay type: cell-based; details: Micrococcus luteus, read-out: Antimicrobial activity (MIC)
Procedure: as §1, §2

M. pneumoniae FH-P24 = test: MIC, agar plate dilution method; assay type: cell-based; details: Mycoplasmoides pneumoniae, FHP24, 20 h, read-out: Antimicrobial activity (MIC)
Procedure: as §1, §2

M. pneumoniae FH = test: MIC, agar plate dilution method; assay type: cell-based; details: Mycoplasmoides pneumoniae, 20 h, read-out: Antimicrobial activity (MIC)
Procedure: as §1, §2

M. pneumoniae Mac = test: MIC, agar plate dilution method; assay type: cell-based; details: Mycoplasmoides pneumoniae, 20 h, read-out: Antimicrobial activity (MIC)
Procedure: as §1, §2

M. pneumoniae Numata = test: MIC, agar plate dilution method; assay type: cell-based; details: Mycoplasmoides pneumoniae, 20 h, read-out: Antimicrobial activity (MIC)
Procedure: as §1, §2

S. Pneumoniae Type 1 = test: MIC, agar plate dilution method; assay type: cell-based; details: Streptococcus pneumoniae, read-out: Antimicrobial activity (MIC)
Procedure: as §1, §2

S. Pyogenes Cook = test: MIC, agar plate dilution method; assay type: cell-based; details: Streptococcus pyogenes, 37° C., 20 hours, read-out: Antimicrobial activity (MIC)
Procedure: as §1, §2

S. aureus 209P JC-1 = test: MIC, agar plate dilution method; assay type: cell-based; details: Staphylococcus aureus; S. aureus 209P JC-1; 37° C., 20 hours; read-out: Antimicrobial activity (MIC)
Procedure: as §1, §2

S. aureus M126 = test: MIC, agar plate dilution method; assay type: cell-based; details: Staphylococcus aureus; S. aureus M126; 37° C., 20 hours; read-out: Antimicrobial activity (MIC)
Procedure: as §1, §2

S. aureus M133 = test: MIC, agar plate dilution method; assay type: cell-based; details: Staphylococcus aureus, 37° C., 20 hours, read-out: Antimicrobial activity (MIC)
Procedure: as §1, §2

S. aureus MS15009/pMS98 = test: MIC, agar plate dilution method; assay type: cell-based; details: Staphylococcus aureus, MS15009/PMS98, 20 h, read-out: Antimicrobial activity (MIC)
Procedure: as §1, §2

S. aureus MS15009/pMS99 = test: MIC, agar plate dilution method; assay type: cell-based; details: Staphylococcus aureus, MS15009/PMS99, 20 h, read-out: Antimicrobial activity (MIC)
Procedure: as §1, §2

S. aureus MS15026 = test: MIC, agar plate dilution method; assay type: cell-based; details: Staphylococcus aureus, 37° C., 20 hours, read-out: Antimicrobial activity (MIC)
Procedure: as §1, §2

S. aureus MS15027 = test: MIC, agar plate dilution method; assay type: cell-based; details: Staphylococcus aureus, 37° C., 20 hours, read-out: Antimicrobial activity (MIC)
Procedure: as §1, §2

S. epidermidis ATCC14990 = test: MIC, agar plate dilution method; assay type: cell-based; details: Staphylococcus epidermidis, 37° C., 20 hours, read-out: Antimicrobial activity (MIC)
Procedure: as §1, §2

S. pneumoniae IP692 = test: MIC, agar plate dilution method; assay type: cell-based; details: Streptococcus pneumoniae, read-out: Antimicrobial activity (MIC)
Procedure: as §1, §2

[1] = concentration in serum after oral administration to mice, bioassay; assay type: in vivo, mice (Jcl:ICR); details: mouse, serum, 200 mg/kg, M. luteus bioassay, read-out: maximum concentration in the serum
Procedure: The compound (3) was mixed with a 0.2% solution of carboxymethylcellulose to give a concentration of 4 mg/ml and a 1 ml portion of the resulting emulsion was orally administered to 4-week-old male Jcl:ICR mice. Blood was collected from armpit of the mice 30, 60, 120, 240 and 360 minutes after the administration of the test compound (n=2). The collected blood was allowed to stand at room temperature for about 2 hours and centrifuged for 20 minutes with a centrifuge (KUBOTA KS-5000P) to obtain serum. To the serum was added an equivalent volume of 50% CH3 CN-50 mM phosphate (1:1 by volume) buffer (pH 7.0). The resulting mixture served as a serum sample. The concentration of the test compound in the serum sample was measured by the following bioassay method.
One hundred […] of the serum sample was poured into a hole made on a test plate containing 40 ml of MRAPJ medium (6 g/l peptone, 3 g/l yeast extract, 1.5 g/l meat extract, 1 g/l glucose and 15 g/l agar, pH 6.5) supplemented with a solution of M. Iuteus ATCC9341 (1%) and incubated at 32° C. for 18 hours and MIC was measured based on the calibration curve. MOM, MDM and RKM were also tested for comparison. […] Thus a long-pending problem of "low concentration in serum" of 16-membered macrolide antibiotics has been solved. […] Thus this compound is considered as a macrolide derivative showing new pharmacokinetics.
Further, a pharmacokinetics test on the compound (12) of the present invention is carried out in the same manner as described above. Namely, 200 mg/kg of the compound (12) is orally administered to mice and the concentration of this compound in the serum is determined by a bioassay method with the use of M. luteus as a test strain. […] The disadvantage of 16-membered ring macrolide antibiotics, which has been pointed out for a long time, has been thus overcome.

[2] = recovery in urine after oral administration to mice, bioassay; assay type: in vivo; details: mouse, 200 mg/kg oral (compound (3)), urine 4 and 24 hours
Procedure: Subsequently, 200 mg/kg of the compound (3) was orally administered to three mice in the same manner as described above.
The three mice were put in a metabolic cage MM type (Sugiyamagen Company, Tokyo, Japan) and urine was collected 4 and 24 hours after the administration of the test compound. The collected urine was filtered through a filter having a pore size of 0.45 μm (Millipore) and was mixed with an equivalent volume of 50% CH3CN-50 mM phosphate (1:1 by volume) buffer (pH 6.5) to serve as a urine sample. The bioassay was carried out in the same manner as described above to determine the concentration of the test compound in the urine sample. The recovering in the urine was calculated according to the following equation. [formula]

[3] = pharmacokinetics of midecamycins after oral administration to mice; assay type: in vivo
Excerpt: First, the present inventors discussed effects of a difference in the structure at the 9-position among midecamycin analogues, from among 16-membered macrolide compounds, on pharmacokinetics. That is to say, midecamycin A1 having a hydroxyl group at the 9-position (Medemycin; MDM) [Journal of Antibiotics, 24 (7), 452 (1971)] and midecamycin A3 having a carbonyl group at the 9-position [ibid., 24 (7), 476 (1971)] were orally administered to animals (mice), followed by observing the pharmacokinetics.

[4] = tested on: Gram-positive bacteria and Mycoplasma; test: antimicrobial activity in vitro (summary in words); assay type: cell-based; details: from Table 1
Procedure: as §1, §2

metabolism in plasma = assay type: in vitro ADME, rat; details: no free hydroxyl group in the neutral sugar moiety formed
Procedure: Each test compound and 50 μl of a methanol solution (10,000 γ) were added to 950 μl of thawed rat plasma and the resulting mixture was incubated at 37° C. for 24 hours. After completion of the incubation, a 20 μl portion of the mixture was added to 980 μl of 0.05M phosphate buffer (pH 7.6). A 20 μl portion of the sample solution was used to measure antimicrobial activity against M. luteus. Separately, the calibration curve was prepared by using a methanol solution containing each test compound. The starting activity of each compound in the plasma was referred to as 100%.

[5] = NIHJJC2, E. coli NIHJ JC-2, 37° C., 20 hours
[6] = W73, E. faecalis W-73, 37° C., 20 hours
[7] = Haemophilus influenzae, H. influenzae 9334, 37° C., 20 hours
[8] = M. luteus ATCC9341, 37° C., 20 hours
[9] = S. Pneumoniae Type 1, 37° C., 20 hours
[10] = S. pneumoniae IP692, 37° C., 20 hours

Compound	MIC (B. catarrhalis W-0500) [mg/L]	MIC (B. catarrhalis W-0506) [mg/L]	MIC (E. coli NIHJ JC-2; [5]) [mg/L]	MIC (E. faecalis W-73; [6]) [mg/L]	MIC (H. influenzae 9334; [7]) [mg/L]	MIC (K. pneumoniae PC1602) [mg/L]	MIC (M. luteus ATCC9341; [8]) [mg/L]	MIC (M. pneumoniae FH) [mg/L]	MIC (M. pneumoniae Mac) [mg/L]	MIC (M. pneumoniae Numata) [mg/L]	MIC (S. Pneumoniae Type 1; [9]) [mg/L]	MIC (S. Pyogenes Cook) [mg/L]	MIC (S. aureus 209P JC-1) [mg/L]	MIC (S. aureus M126) [mg/L]	MIC (S. aureus M133) [mg/L]	MIC (S. aureus MS15009/pMS98) [mg/L]	MIC (S. aureus MS15009/pMS99) [mg/L]	MIC (S. aureus MS15026) [mg/L]	MIC (S. aureus MS15027) [mg/L]	MIC (S. epidermidis ATCC14990) [mg/L]	other results
CCC(=O)O[C@@H]1CC(=O)O[C@H](C)C/C=C/C=C/[C@H](O)[C@H](C)C[C@H](CC=O)[C@H](O[C@@H]2O[C@H](C)[C@@H](O[C@H]3C[C@@](C)(O)[C@@H](OC(=O)CC)[C@H](C)O3)[C@H](N(C)C)[C@H]2O)[C@H]1OC [MDM, midecamycin A1, reference compound]	3.13 (≈ 3.85 µM)	1.56 (≈ 1.92 µM)	> 100	3.13 (≈ 3.85 µM)	3.13 (≈ 3.85 µM)	> 100	0.05 (≈ 0.0614 µM)	1.56 (≈ 1.92 µM)	0.1 (≈ 0.123 µM)	0.05 (≈ 0.0614 µM)	0.39 (≈ 0.479 µM)	0.2 (≈ 0.246 µM)	0.39 (≈ 0.479 µM)	> 100	0.78 (≈ 0.958 µM)	0.39 (≈ 0.479 µM)	> 100	> 100	0.78 (≈ 0.958 µM)	1.56 (≈ 1.92 µM)	MIC (M. pneumoniae FH-P24; M. pneumoniae FH-P24): 0.1 mg/L (≈ 0.123 µM); MIC (S. pneumoniae IP692; [10]): 0.39 mg/L (≈ 0.479 µM); Cmax [1]: 5.2 µg/mL; dose excreted at 24 h [2]: < 2%; recovery in urine compared with midecamycin A3 [3]: superior to midecamycin A3; sustained concentration in serum compared with midecamycin A3 [3]: superior to midecamycin A3
CCCCCCO[C@H]1[C@H](C)O[C@@H](O[C@H]2[C@H](N(C)C)[C@@H](O)[C@H](O[C@H]3[C@@H](CC=O)C[C@@H](C)[C@@H](O)/C=C/C=C/C[C@@H](C)OC(=O)C[C@@H](OC(=O)CC)[C@@H]3OC)O[C@@H]2C)C[C@@]1(C)OC [(5)]	1.56 (≈ 1.82 µM)	1.56 (≈ 1.82 µM)	> 100	3.13 (≈ 3.66 µM)	6.25 (≈ 7.3 µM)	> 100		1.56 (≈ 1.82 µM)	0.2 (≈ 0.234 µM)	0.05 (≈ 0.0584 µM)	0.2 (≈ 0.234 µM)	0.2 (≈ 0.234 µM)	0.39 (≈ 0.456 µM)	> 100	1.56 (≈ 1.82 µM)	0.78 (≈ 0.911 µM)	> 100	> 100	1.56 (≈ 1.82 µM)	1.56 (≈ 1.82 µM)	MIC (M. luteus ATCC9341; ATCC9341, 20 h): 0.1 mg/L (≈ 0.117 µM); MIC (M. pneumoniae FH-P24): 0.2 mg/L (≈ 0.234 µM); MIC (S. pneumoniae IP692; IP692, 20 h): 0.2 mg/L (≈ 0.234 µM); antimicrobial activities on Gram-positive bacteria and Mycoplasma [4]: strong antimicrobial activities; extent of metabolism (metabolism in plasma): hardly metabolized; degree of loss of the antimicrobial activity in the plasma compared with MOM (M. luteus): lower than that of MOM; duration of antimicrobial activity in rat plasma (M. luteus): extremely long-acting in rat plasma
CCCCO[C@H]1[C@H](C)O[C@@H](O[C@H]2[C@H](N(C)C)[C@@H](O)[C@H](O[C@H]3[C@@H](CC=O)C[C@@H](C)[C@@H](O)/C=C/C=C/C[C@@H](C)OC(=O)C[C@@H](OC(=O)CC)[C@@H]3OC)O[C@@H]2C)C[C@@]1(C)OC [(2)]	1.56 (≈ 1.88 µM)	1.56 (≈ 1.88 µM)				> 100	0.05 (≈ 0.0604 µM)	1.56 (≈ 1.88 µM)	0.1 (≈ 0.121 µM)	0.05 (≈ 0.0604 µM)		0.2 (≈ 0.242 µM)	0.39 (≈ 0.471 µM)	> 100	0.78 (≈ 0.942 µM)	0.39 (≈ 0.471 µM)	> 100	> 100	0.78 (≈ 0.942 µM)	1.56 (≈ 1.88 µM)	MIC (E. coli NIHJ JC-2; NIHJJC2, 20 h): > 100 mg/L; MIC (E. faecalis W-73; W73, 20 h): 3.13 mg/L (≈ 3.78 µM); MIC (H. influenzae 9334; Haemophilus influenzae, 9334, 20 h): 6.25 mg/L (≈ 7.55 µM); MIC (M. pneumoniae FH-P24): 0.1 mg/L (≈ 0.121 µM); MIC (S. Pneumoniae Type 1; 20 h): 0.2 mg/L (≈ 0.242 µM); MIC (S. pneumoniae IP692; [10]): 0.05 mg/L (≈ 0.0604 µM); antimicrobial activities compared with MDM [4]: comparable to, or even exceeding, that of MDM; antimicrobial activities on Gram-positive bacteria and Mycoplasma [4]: strong antimicrobial activities; extent of metabolism (metabolism in plasma): hardly metabolized; degree of loss of the antimicrobial activity in the plasma compared with MOM (M. luteus): lower than that of MOM; duration of antimicrobial activity in rat plasma (M. luteus): extremely long-acting in rat plasma
